Measured values as given in patent publication US9981972B2, “N-hydroxy bicyclic hydantoin carbamates as tools for identification of serine hydrolase targets” (ABIDE THERAPEUTICS, INC., priority 2014, dated 2018).
One block for each compound: values may come before it.

Tests used:
LYPLA1/2 = assay: Inhibition by gel-based competitive ABPP in vivo (FP-Rh probe); parameters: species or system mouse
Description: In this assay, test compounds were administered to mice. Mice were sacrificed, and their tissues harvested, homogenized, and the soluble fractions isolated, reacted with FP-Rh, and separated by SDS-PAGE as described above.
Protocol Summary: Purpose-bred 3-4 month old male C57BL6 laboratory mice were i.p. administered test compound (0.5-50 mg/kg in 18:1:1 saline:PEG-40-castor oil:EtOH vehicle solution, 10 μL/g mouse weight) or vehicle only. After 4 hours, mice were humanely sacrificed (anesthetized with isoflurane followed by cervical dislocation), and tissues (liver, kidney, brain) removed and snap frozen in liquid nitrogen before processing. Tissues were homogenized, and soluble proteome isolated by ultracentrifugation (100 k×g, 45 minutes) and protein concentration adjusted to 1 mg/mL in DPBS. An aliquot (50 μL) was reacted with FP-Rh (2 μM final concentration) for 30 minutes at 25° C. Reactions were quenched with 16 μL 4×SDS-PAGE loading buffer (reducing), separated by SDS-PAGE, and visualized by in-gel fluorescent scanning. The percentage activity remaining was determined by measuring the integrated optical density of test compound bands relative to vehicle bands. Note: Due to the overlapping nature of LYPLA1 and LYPLA2 bands, the proteins were quantified together.
The in vivo inhibitory activity of Compound 1 was assessed. For this experiment, mice were administered test compound (0.5-50 mg/kg, i.p.) or vehicle only. After four hours mice were sacrificed and their tissues removed, homogenized, and the soluble fractions isolated and labeled with FP-Rh followed by SDS-PAGE and fluorescent detection of FP-labeled SHs (see FIG. 3B).
Compound 26, Compound 34, and Compound 1 were administered across a dose range of 1-40 mg/kg to C57BL6 mice by intraperitoneal injection, and, after 4 hours, animals were sacrificed and tissues harvested for analysis by gel-based ABPP using the FP-Rh probe and the Compound 39 probe.

HeLa cells = assay: Analysis of cytotoxicity (WST-1); type: cell-based, human
Description: Assay Overview: The purpose of this assay was to determine cytotoxicity of powder samples of test compounds. In this assay, HeLa cells in either serum-free medium or medium containing fetal calf serum (FCS) were incubated with test compounds, followed by determination of cell viability. The assay utilized the WST-1 substrate, which was converted into colorimetric formazan dye by the metabolic activity of viable cells. The amount of formed formazan directly correlated to the number of metabolically active cells in the culture.
Protocol Summary: This assay was started by seeding HeLa cells in DMEM medium supplemented with 10% FCS and 1× Pen-Strep-Glutamine in a 96-well plate. Cells were incubated at 37° C. in a humidified incubator until 80% confluent (24 hours). Medium was removed, and 100 μL of fresh medium (serum-free or supplemented with 10% FCS), pre-mixed with DMSO or test compound, was added to each well. Cells were incubated for 48 hours at 37° C. in a humidified incubator and cell viability was determined by the WST-1 assay (Roche) according to manufacturer instructions. CC50 values were determined from dose-response curves from three replicates at each inhibitor concentration (10, 100, 1000, 10000, 100000 nM), compared to six replicates of cells treated with DMSO only.

PPT1 = target: T1, PPT1 (Homo sapiens, UniProt P50897); assay: ABPP-SILAC, PC3 cells treated in situ, Compound 39 probe; type: cell-based; parameters: endogenous in cells; host or cells: PC3; conditions: 4 h in situ
T1 sequence (P50897 28-306): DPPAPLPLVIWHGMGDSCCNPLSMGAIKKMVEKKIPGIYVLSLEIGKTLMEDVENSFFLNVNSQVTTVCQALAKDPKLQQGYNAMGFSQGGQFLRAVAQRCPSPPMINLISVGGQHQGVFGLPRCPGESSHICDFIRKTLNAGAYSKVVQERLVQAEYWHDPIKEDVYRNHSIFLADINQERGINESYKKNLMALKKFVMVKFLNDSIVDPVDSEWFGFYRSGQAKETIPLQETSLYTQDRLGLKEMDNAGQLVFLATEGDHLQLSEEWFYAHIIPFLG
Description: In situ inhibitor treatments of human cell lines were performed as described previously (Hsu et al., J Med Chem 56, 8270-8279, 2012). Briefly, PC3 or transfected HEK293T cells were grown to confluency in serum-containing media (RPMI or DMEM, respectively). The culture media was then removed and replaced with fresh media containing DMSO or inhibitor at the desired concentration and incubated for 4 hours in a tissue culture incubator (37° C., 5% CO2). Cells were then washed with PBS, harvested, washed with PBS once more, and lysed with a probe sonicator.
Isotopically heavy- and light-labeled PC3 cells were treated with Compound 37 (1 μM) or DMSO for 4 h, respectively, lysed, and then treated Compound 39 (5 μM, 1 h). […] Accordingly, PPT1 was not detected in our previous ABPP-SILAC studies with FP-biotin (see FIG. 9). […]
To evaluate the broader selectivity of Compound 26 and Compound 34 across the SH class, heavy and light isotopically-labeled PC3 cells were treated with inhibitor [Compound 34 (1 μM); or Compound 26 (1 or 0.1 μM); 4 h) and DMSO, respectively, followed by ABPP-SILAC analysis with either the FP-biotin probe or the Compound 39 probe. […] Conversely, Compound 34 inhibited >90% of ABHD4 activity, as measured with either the FP-biotin probe or the Compound 39 probe, and cross-reacted with four additional targets—ABHD6, PAFAH2, PLA2G7, and PLA2G15.

SMILES: O=C(ON1C(=O)C2CN(C(=O)N3CCOCC3)CCN2C1=O)N1CCC(CCc2ccc(Cl)cc2)CC1 (stereo not drawn) [Compound 1, 7-(morpholine-4-carbonyl)-1,3-dioxohexahydroimidazo[1,5-a]pyrazin-2(3H)-yl 4-(4-chloro-phenethyl)piperidine-1-carboxylate]
blockade of LYPLA1 and LYPLA2 in vivo (LYPLA1/2; 5 mg/kg i.p., 4 h, FP-Rh probe): near-complete blockade of LYPLA1 and LYPLA2 in peripheral (e.g., liver, kidney), but not central (brain) tissues
mLYPLA1/2 (in vivo), % @ 5 mg/kg (liver and kidney) (LYPLA1/2; 5 mg/kg, liver and kidney, mouse): 100% @
inhibition of LYPLA1/2 in liver and kidney (LYPLA1/2; 0.5-50 mg/kg i.p., 4 h, liver and kidney): ~90%
inhibition of LYPLA1/2 in the brain (LYPLA1/2; highest dose 50 mg/kg i.p., 4 h, brain): ~75%
cytotoxicity (HeLa cells; HeLa, 48 h, serum-free and serum-supplemented medium, up to 100 μM): did not show evidence of cytotoxicity
dosing window (CC50 limit 10 μM versus in situ IC50) (HeLa cells; based on in situ IC50 values of 87/143 nM): ~70 fold

inhibition of PPT1 in PC3 cells (PPT1; 1 or 0.1 μM, Compound 39 probe): ~90%
SMILES: COc1ccc(N2CCN(C(=O)ON3C(=O)C4CN(CC5CCN(Cc6ccccc6)CC5)CCN4C3=O)CC2)cc1 (stereo not drawn) [Compound 26, 7-((1-benzylpiperidin-4-yl)methyl)-1,3-dioxohexahydroimidazo[1,5-a]pyrazin-2(3H)-yl 4-(4-methoxyphenyl)piperazine-1-carboxylate]
mLYPLA1/2 (in vivo), % @ 40 mg/kg (testis) (LYPLA1/2; 40 mg/kg, testis, mouse): 0% @

inhibition at 1 µM (PPT1; PC-3, 1 μM, Compound 39 probe (5 μM, 1 h)): > 90%
SMILES: COc1ccc(N2CCN(C(=O)ON3C(=O)C4CN(Cc5ccc(Oc6ccccc6)cc5)CCN4C3=O)CC2)cc1 (stereo not drawn) [Compound 37, 1,3-dioxo-7-(4-phenoxybenzyl)hexahydroimidazo[1,5-a]pyrazin-2(3H)-yl 4-(4-methoxyphenyl)piperazine-1-carboxylate]
